Experimental data reported in patent publication US5194446A, “Compounds having one or more aminosulfaonyloxy radicals useful as pharmaceuticals” (A. H. Robins Company, Incorporated, priority 1991, dated 1993).

Assays:
[1] = system: adjuvant-induced arthritis test model in rats; assay: adjuvant-induced arthritis test model in rats; assay type: in vivo, rat (adult, female Lewis)
Method: The test utilized to evidence antiarthritic properties of the compounds of Formula I is an adjuvant-induced arthritis test model in rats. Adjuvant arthritis was induced in adult, female Lewis rats as described by Walz et al. J. Pharmac. Exp. Ther. 178:223-231 (1971). Briefly, arthritis was induced in the rats by injection of 0.05 ml of a 1.5% suspension of killed Mycobacterium Butyricum into the right rear foot pad of each rat. Eighteen days later, those rats having a left hind paw volume (measured by mercury displacement up to a reference tatoo mark placed on the leg on Day 0) of 2.4 ml or greater were randomly assigned to treatment groups. The test, reference and control articles (as solutions or suspensions in 0.5% Tween 80) were given by gavage, beginning on Day 18 after adjuvant administration and for 5 days a week (Monday through Friday) through Day 49. Paw volumes were recorded on days 18, 29 and 50 after adjuvant injection. On Day 50, the rats were killed (carbon dioxide) and the uninjected hind limb was x-rayed and scored for bone damage on an arbitrary 1 (no damage) to 10 (maximum damage) scale.
Data collected for hind paw volumes and bone damage were analyzed by the Dunnett's t-test [Dunnett, C. W., J. Amer. Stat. Assoc., 50:1096-1121 (1955)], comparing a positive control group with several treated groups.

[2] = system: seventeen (17) days-old chick embryo calvaria; assay: bone resorption in vitro induced by parathyroid hormone (PTH); assay type: cell-based; settings: Gallus gallus; for inhibition at 100 µM: compound 10^-4 M; for inhibition at 10 µM: compound 10^-5 M; for inhibition at 1 µM: compound 10^-6 M
Method: In order to determine the effectiveness of Formula I compounds in the treatment and/or prevention of osteoporosis in mammalian species an in vitro experimental procedure was utilized to measure bone resorption. The procedure utilized was as follows.
Bone resorption in vitro was measured essentially as outlined by Hall and Kenny (Pharmacology 30:339-347, 1985), except however, seventeen (17) days-old chick embryo calvaria were utilized instead of mice calvaria. Resorption is defined as the amount of calcium (mg/ml) in the medium of vehicle-treated cultures. The effects of the Formula I test compounds were determined by monitoring the effect on calcium concentrations in presence of drug relative to control calcium concentrations at a particular PTH (parathyroid hormone) concentration. The % inhibition of resorption induced by parathyroid hormone by Formula I compounds was calculated as follows: [formula] where Ca (PTH)=Ca (PTH)-Ca (Vehicle medium), and
Ca (PTH+Formula I compound)=Ca (PTH+Formula I compound)

[3] = hygroscopicity observation; assay type: physicochemical; settings: white crystals

Row | SMILES | reduction in paw edema, significance ([1]; 1 mg/kg to 100 mg/kg by gavage, Dunnett's t-test) | bone damage score ([1]; 1 (no damage) to 10 (maximum damage) scale, x-ray of uninjected hind limb, Day 50, dosage range 1 mg/kg to 100 mg/kg by gavage, controls scored 8 to 9) | reduction in bone damage, significance ([1]; vs. controls, 1 mg/kg to 100 mg/kg by gavage, Dunnett's t-test) | inhibition at 100 µM ([2]; PTH 10^-7 M) | inhibition at 100 µM ([2]; PTH 10^-8 M) | inhibition at 100 µM ([2]; PTH 10^-9 M) | inhibition at 100 µM ([2]; PTH 10^-10 M) | inhibition at 10 µM ([2]; PTH 10^-7 M) | inhibition at 10 µM ([2]; PTH 10^-8 M) | inhibition at 10 µM ([2]; PTH 10^-9 M) | inhibition at 10 µM ([2]; PTH 10^-10 M) | inhibition at 1 µM ([2]; PTH 10^-7 M) | inhibition at 1 µM ([2]; PTH 10^-8 M) | inhibition at 1 µM ([2]; PTH 10^-9 M) | inhibition at 1 µM ([2]; PTH 10^-10 M) | inhibition at 0.1 µM ([2]; compound 10^-7 M, PTH 10^-8 M) | hygroscopicity [3]
1 | COc1ccccc1OCC(COS(N)(=O)=O)OS(N)(=O)=O (centres unmarked) [Example 3, 1-[(2-Methoxyphenoxy)methyl]-1,2-ethanediol bisulfamate (ester)] | significant | 5.4-5.9 | significant | 10% | 40.5% | 66.5% | 100% | 21% | 37% | 86% | 100% | 21% | 29% | 100% | 100% | 23% | –
2 | NS(=O)(=O)OCCN1CCCC1=O [Example 63, 1-[2-[(Aminosulfonyl)oxy]ethyl]-2-pyrrolidinone] | – | – | – | – | – | – | – | – | – | – | – | – | – | – | – | – | slightly hygroscopic
